Experimental findings from patent US20050130935A1, “Combination of a beta-2-adrenoceptor agonists and an aminosugars and their use for the treatment immunomodulatory disorders” (priority 2002, published 2005) are described below.

Assay [1] relates to osteoarthritis of the knees. Put plainly: case report, person with osteoarthritis of the knees (Example 180). The class given is in vivo, human. The note with it: for success of earlier analgesic treatment of osteoarthritis of the knees: treatment for periods during 8 years. The protocol:
They were then treated with the complex of the invention disclosed in example 56 (1500 mg/day). […] The improvement persisted for the entire treatment period of 10 weeks, where after the treatment was terminated.

Assay [2] deals with arachidonic acid induced ear oedema. Put plainly: arachidonic acid induced ear inflammation test in the mouse, complex versus its components (Example 178). The class given is in vivo. As to conditions: i.p.; for inhibition of ear oedema, in words: doses of T17. The protocol:
The objective of this study is to assess the effect of a dose of a complex according to compared to the effect of the corresponding doses of the components of the complex. All compounds were systemically administered in the arachidonic acid induced ear inflammation test in the mouse, a commonly employed method for screening and evaluation of antiinflammatory drugs. Methylprednisolone was employed as reference compound.
(§1) The study was performed in female BALB/ca mice from M & B A/S, DK-8680 Ry. At start of the acclimatisation period the mice were in the weight range of 20 g (+/−5 g).
On the day of arrival the animals were randomly allocated to groups of 10 mice.
(§2) The test substances and reference compound were administered intraperitoneally in volumes of 20 ml per kg body weight 30 minutes before application of arachidonic acid to the ear.
All groups were treated with 20 μl arachidonic acid, 100 mg/ml in acetone, on the right ear.
One hour after the arachidonic acid application the mice were sacrificed, the ears cut from the tip with a punch biopsy knife (8 mm diameter) and weighed.
(§3) Mean weights and standard deviations were calculated. Relative ear oedema was assessed as the weight difference between right and left ear of each mouse expressed as percent of the left ear. Percent inhibition of the relative ear oedema compared with the vehicle treated groups was calculated for the test substance and reference compound treated groups.
All visible signs of ill health and any behavioural changes were recorded daily during the study. Any deviation from normal was recorded with respect to time of onset, duration and intensity.
Differences in relative ear oedema between the vehicle treated group and the other groups were tested for significance employing a non-parametric statistical method of analysis, the Mann-Whitney U test. The required level of significance will be p<0.05. […] All statistical analysis was performed employing the statistical software package Analyse-it v. 1.62.

Assay [3] concerns muscular pain. Put plainly: case report, with muscular pain (Example 179). The class given is in vivo, human. As for the experimental part:
They were then treated with the complex of the invention disclosed in example 56 (1500 mg/day) instead of glucosamine sulfate. […] After two weeks they were symptom free for the first time in 6 years, which persisted for another 6 weeks of treatment, where after the treatment was terminated.

Assay [4] has as its system arachidonic acid induced ear oedema. The assay can be described thus: arachidonic acid induced ear inflammation test in the mouse (Example 177). The class given is in vivo. The note with it: i.p., 30 minutes before arachidonic acid, ears weighed one hour after application. As for the experimental part: The objective of this study is to assess the effect of three doses of two chemical complexes of the invention systemically administered in the arachidonic acid induced ear inflammation test in the mouse, a commonly employed method for screening and evaluation of antiinflammatory drugs. Dexamethasone was employed as reference compound.
as §1
On the day of arrival the animals were randomly allocated to groups of 8 mice.
as §2
All groups were treated with 20 μl arachidonic acid, 100 mg/ml in acetone, on the right ear. […]
as §3
All visible signs of ill health and any behavioural changes were recorded daily during the study. Any deviation from normal was recorded with respect to time of onset, duration and intensity. […]

Take `COc1ccc2c3c1O[C@H]1[C@@H](O)C=C[C@H]4[C@@H](C2)N(C)CC[C@@]341` [codeine]: the “success of earlier analgesic treatment of osteoarthritis of the knees” value (from here on “success … of the knees”) in assay [1] is listed as “limited success”. Consider `C[C@H]1C[C@@H]2[C@H]([C@@H](O)C[C@@]3(C)[C@H]2CC[C@]3(O)C(=O)CO)[C@@]2(C)C=CC(=O)C=C12` [Methylprednisolone], for which, in assay [2] (30 mg/kg), the “% Inhibition of relative ear oedema” value was found to be 55%. Turning to `CC(C)Cc1ccc(C(C)C(=O)O)cc1` (stereo not shown) [ibuprofen], the “success of earlier analgesic treatment of muscular pain” value in assay [3] (treatment for periods during 6 years) is listed as “limited success”. Consider `N[C@H]1C(O)O[C@H](CO)[C@@H](O)[C@@H]1O` (stereo partly shown) [glucosamine], for which the “effect of earlier treatment on osteoarthritis of the knees” value in assay [1] (recommended dose, different formulations) is “very limited effect”.

For the compound `N[C@H]1C(O)O[C@H](CO)[C@@H](O)[C@@H]1O.O=S(=O)(O)O` (stereo partly shown) [Glucosamine sulfate], the “% Inhibition of relative ear oedema” value in assay [2] (997 mg/kg) is recorded as 9%. For the same compound, in assay [2], the “inhibition of ear oedema, in words” value is “inhibited ear oedema mildly, and not statistically significantly”. Further, in assay [3] (1500 mg a day, continuously the last year), the “improvement of muscular pain symptoms on earlier treatment” value was “small improvement”. Take `CS(=O)(=O)c1ccc(C2=C(c3ccccc3)C(=O)OC2)cc1` [rofecoxib]: the “success … of the knees” value in assay [1] was “limited success”. Take `C[C@@H]1C[C@H]2[C@@H]3CCC4=CC(=O)C=C[C@]4(C)[C@@]3(F)[C@@H](O)C[C@]2(C)[C@@]1(O)C(=O)CO` [Dexamethasone]: the “% Inhibition of relative ear oedema” value in assay [4] (2 mg/kg) and in assay [4] (6 mg/kg) was 0% in each case. For the compound `CC(C)(C)NCC(O)c1ccc(O)c(CO)c1` (stereo not shown) [Salbutamol], in assay [2] (3.0 mg/kg), the “% Inhibition of relative ear oedema” value came out at 55%. Besides, the “inhibition of ear oedema, in words” value in assay [2] is listed as “inhibited ear oedema significantly”.

For `O=C(O)Cc1ccccc1Nc1c(Cl)cccc1Cl` [diclofenac], in assay [1], the “success … of the knees” value was “limited success”.
